Experimental data published in patent US20240109918A1, “HETEROCYCLIC COMPOUNDS AND USES THEREOF” (Kumquat Biosciences Inc., priority 2022, published 2024).

Legend:
KRASwt = molecular target: T1, KRASwt (Homo sapiens, UniProt P01116); assay: Bio-Biochem-PPI-HTRF Ras-SOS1 interaction assay (KRAS wt); assay type: biochemical; conditions: 5 nM
T1 construct: made in house; host or cells: E. coli BL21 (DE3)
In short: (§1)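 Inhibition of His-hSOS1 binding to GST-tagged wild-type or G12D K-Ras is read as HTRF ratio (665/620 nm) following incubation of about 10 minutes or longer, and IC50 values are fitted from duplicate six-point titrations.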

KRASG12D = molecular target: T2, KRASG12D (Homo sapiens, UniProt P01116, G12D); assay: Bio-Biochem-PPI-HTRF Ras-SOS1 interaction assay (KRAS G12D); assay type: biochemical; conditions: 5 nM
T2 construct: made in house; host or cells: E. coli BL21 (DE3)
T2 sequence (P01116 1-188 isoform P01116-2 G12D): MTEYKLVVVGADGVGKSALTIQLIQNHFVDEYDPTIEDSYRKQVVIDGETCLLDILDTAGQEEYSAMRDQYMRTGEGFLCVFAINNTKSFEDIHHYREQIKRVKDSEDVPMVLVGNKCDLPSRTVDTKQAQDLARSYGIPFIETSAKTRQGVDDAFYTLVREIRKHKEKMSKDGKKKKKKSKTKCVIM
In short: as §1

T1 sequence (P01116 1-188 isoform P01116-2): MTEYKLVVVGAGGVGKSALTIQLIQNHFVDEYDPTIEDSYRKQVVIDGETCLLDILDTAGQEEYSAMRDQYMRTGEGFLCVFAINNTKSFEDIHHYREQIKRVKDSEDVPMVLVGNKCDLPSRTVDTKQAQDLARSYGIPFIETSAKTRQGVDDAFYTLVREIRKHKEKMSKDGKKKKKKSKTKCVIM

SMILES | IC50 (KRASwt) [µM] | IC50 (KRASG12D) [µM]
N#Cc1c(N)sc2c(F)ccc(-c3c(Cl)cc4c(N5CCCCC6(CN(C(=O)c7ccnn7CC(F)F)C6)C5)nc(OC[C@@]56CCCN5C[C@H](F)C6)nc4c3F)c12 [compound 208, 2-amino-4-(6-chloro-4-(2-(1-(2,2-difluoroethyl)-1H-pyrazole-5-carbonyl)-2,6-diazaspiro[3.6]decan-6-yl)-8-fluoro-2-(((2R,7aS)-2-fluorotetrahydro-1H-pyrrolizin-7a(5H)-yl)methoxy)quinazolin-7-yl)-7-fluorobenzo[b]thiophene-3-carbonitrile] | < 5 | < 5
N#Cc1c(N)sc2c(F)ccc(-c3c(Cl)cc4c(N5CC6(CN(C(=O)C7CC7(F)F)C6)C5)nc(OC[C@@]56CCCN5C[C@H](F)C6)nc4c3F)c12 (stereo partly drawn) [compound 219, 2-amino-4-(6-chloro-4-(6-(2,2-difluorocyclopropane-1-carbonyl)-2,6-diazaspiro[3.3]heptan-2-yl)-8-fluoro-2-(((2R,7aS)-2-fluorotetrahydro-1H-pyrrolizin-7a(5H)-yl)methoxy)quinazolin-7-yl)-7-fluorobenzo[b]thiophene-3-carbonitrile] | < 5 | < 5
Nc1nc2c(-c3c(Cl)cc4c(N5CCC6(CC5)CN(C(=O)C(F)(F)F)C6)nc(OC[C@@]56CCCN5C[C@H](F)C6)nc4c3F)ccc(F)c2s1 [compound 168, 1-(7-(7-(2-amino-7-fluorobenzo[d]thiazol-4-yl)-6-chloro-8-fluoro-2-(((2R,7aS)-2-fluorotetrahydro-1H-pyrrolizin-7a(5H)-yl)methoxy)quinazolin-4-yl)-2,7-diazaspiro[3.5]nonan-2-yl)-2,2,2-trifluoroethan-1-one] | < 5 | ≥ 5
CN(C)C/C=C/C(=O)N1CC2(C1)CN(c1nc(OC[C@@]34CCCN3C[C@H](F)C4)nc3c(F)c(-c4ccc(F)c5sc(N)c(C#N)c45)c(Cl)cc13)CCO2 [compound 185, 2-amino-4-(6-chloro-4-(2-((E)-4-(dimethylamino)but-2-enoyl)-5-oxa-2,8-diazaspiro[3.5]nonan-8-yl)-8-fluoro-2-(((2R,7aS)-2-fluorotetrahydro-1H-pyrrolizin-7a(5H)-yl)methoxy)quinazolin-7-yl)-7-fluorobenzo[b]thiophene-3-carbonitrile] | < 5 | < 5
N#Cc1c(N)sc2c(F)ccc(-c3c(Cl)cc4c(N5CCOC6(CN(C(=O)c7ccnn7C(F)(F)F)C6)C5)nc(OC[C@@]56CCCN5C[C@H](F)C6)nc4c3F)c12 [compound 265, 2-amino-4-(6-chloro-8-fluoro-2-(((2R,7aS)-2-fluorotetrahydro-1H-pyrrolizin-7a(5H)-yl)methoxy)-4-(2-(1-(trifluoromethyl)-1H-pyrazole-5-carbonyl)-5-oxa-2,8-diazaspiro[3.5]nonan-8-yl)quinazolin-7-yl)-7-fluorobenzo[b]thiophene-3-carbonitrile] | < 5 | < 5
N#Cc1c(N)sc2c(F)ccc(-c3c(Cl)cc4c(N5CCCCC6(CN(C(=O)C7(CN8CCOCC8)CC7)C6)C5)nc(OC[C@@]56CCCN5C[C@H](F)C6)nc4c3F)c12 [compound 278, 2-amino-4-(6-chloro-8-fluoro-2-(((2R,7aS)-2-fluorotetrahydro-1H-pyrrolizin-7a(5H)-yl)methoxy)-4-(2-(1-(morpholinomethyl)cyclopropane-1-carbonyl)-2,6-diazaspiro[3.6]decan-6-yl)quinazolin-7-yl)-7-fluorobenzo[b]thiophene-3-carbonitrile] | < 5 | < 5
C[C@H](Oc1nc(N2CCCC3(CN(C(=O)C4CC4(F)F)C3)C2)c2cc(Cl)c(-c3ccc(F)c4sc(N)c(C#N)c34)c(F)c2n1)[C@@H]1CCCN1C (stereo partly drawn) [compound 148, 2-amino-4-(6-chloro-4-(2-(2,2-difluorocyclopropane-1-carbonyl)-2,6-diazaspiro[3.5]nonan-6-yl)-8-fluoro-2-((S)-1-((S)-1-methylpyrrolidin-2-yl)ethoxy)quinazolin-7-yl)-7-fluorobenzo[b]thiophene-3-carbonitrile] | < 5 | < 5
N#Cc1c(N)sc2c(F)ccc(-c3c(Cl)cc4c(N5CCCC6(CNC6)C5)nc(OC[C@@]56CCCN5C[C@H](F)C6)nc4c3F)c12 [compound 147, 2-amino-4-(6-chloro-8-fluoro-2-(((2R,7aS)-2-fluorotetrahydro-1H-pyrrolizin-7a(5H)-yl)methoxy)-4-(2,6-diazaspiro[3.5]nonan-6-yl)quinazolin-7-yl)-7-fluorobenzo[b]thiophene-3-carbonitrile] | < 5 | < 5
Cc1c(N)sc2c(F)ccc(-c3c(Cl)cc4c(N5CCOC6(CN(C(=O)/C(C#N)=C/c7ccoc7)C6)C5)nc(OC[C@@]56CCCN5C[C@H](F)C6)nc4c3F)c12 [compound 348, (E)-2-(8-(7-(2-amino-7-fluoro-3-methylbenzo[b]thiophen-4-yl)-6-chloro-8-fluoro-2-(((2R,7aS)-2-fluorotetrahydro-1H-pyrrolizin-7a(5H)-yl)methoxy)quinazolin-4-yl)-5-oxa-2,8-diazaspiro [3.5]nonane-2-carbonyl)-3-(furan-3-yl) acrylonitrile] | < 5 | < 5
CN(C)C/C=C/C(=O)N1CC2(CCCN(c3nc(OC[C@@]45CCCN4C[C@H](F)C5)nc4c(F)c(-c5ccc(F)c6sc(N)c(C#N)c56)c(Cl)cc34)C2)C1 [compound 189, 2-amino-4-(6-chloro-4-(2-((E)-4-(dimethylamino)but-2-enoyl)-2,6-diazaspiro[3.5]nonan-6-yl)-8-fluoro-2-(((2R,7aS)-2-fluorotetrahydro-1H-pyrrolizin-7a(5H)-yl)methoxy)quinazolin-7-yl)-7-fluorobenzo[b]thiophene-3-carbonitrile] | < 5 | < 5
COc1cc(C(=O)N2CC3(CCCCN(c4nc(OC[C@@]56CCCN5C[C@H](F)C6)nc5c(F)c(-c6ccc(F)c7sc(N)c(C#N)c67)c(Cl)cc45)C3)C2)n(C)n1 [compound 258, 2-amino-4-(6-chloro-8-fluoro-2-(((2R,7aS)-2-fluorotetrahydro-1H-pyrrolizin-7a(5H)-yl)methoxy)-4-(2-(3-methoxy-1-methyl-1H-pyrazole-5-carbonyl)-2,6-diazaspiro[3.6]decan-6-yl)quinazolin-7-yl)-7-fluorobenzo[b]thiophene-3-carbonitrile] | < 5 | < 5
N#Cc1c(N)sc2c(F)ccc(-c3c(Cl)cc4c(N5CCCC6(CN(C(=O)C(F)Cl)C6)C5)nc(OC[C@@]56CCCN5C[C@H](F)C6)nc4c3F)c12 (stereo partly drawn) [compound 184, 2-amino-4-(6-chloro-4-(2-(2-chloro-2-fluoroacetyl)-2,6-diazaspiro[3.5]nonan-6-yl)-8-fluoro-2-(((2R,7aS)-2-fluorotetrahydro-1H-pyrrolizin-7a(5H)-yl)methoxy)quinazolin-7-yl)-7-fluorobenzo[b]thiophene-3-carbonitrile] | < 5 | < 5
N#Cc1c(N)sc2c(F)ccc(-c3c(Cl)cc4c(N5CCCCC6(CN(C(=O)CC7CCOCC7)C6)C5)nc(OC[C@@]56CCCN5C[C@H](F)C6)nc4c3F)c12 [compound 204, 2-amino-4-(6-chloro-8-fluoro-2-(((2R,7aS)-2-fluorotetrahydro-1H-pyrrolizin-7a(5H)-yl)methoxy)-4-(2-(2-(tetrahydro-2H-pyran-4-yl)acetyl)-2,6-diazaspiro[3.6]decan-6-yl)quinazolin-7-yl)-7-fluorobenzo[b]thiophene-3-carbonitrile] | < 5 | < 5
C#Cc1c(F)ccc2cc(O)cc(-c3ccc4c(N5CCCCC6(CN(C(=O)[C@@H]7CC7(F)F)C6)C5)nc(OC[C@@]56CCCN5C[C@H](F)C6)nc4c3F)c12 [compound 260, ((S)-2,2-difluorocyclopropyl) (6-(7-(8-ethynyl-7-fluoro-3-hydroxynaphthalen-1-yl)-8-fluoro-2-(((2R,7aS)-2-fluorotetrahydro-1H-pyrrolizin-7a(5H)-yl)methoxy)quinazolin-4-yl)-2,6-diazaspiro[3.6]decan-2-yl)methanone] | < 5 | < 5
C[C@H]1CN(C(=O)N2CC3(CCCCN(c4nc(OC[C@@]56CCCN5C[C@H](F)C6)nc5c(F)c(-c6ccc(F)c7sc(N)c(C#N)c67)c(Cl)cc45)C3)C2)CCO1 [compound 285, 2-amino-4-(6-chloro-8-fluoro-2-(((2R,7aS)-2-fluorotetrahydro-1H-pyrrolizin-7a(5H)-yl)methoxy)-4-(2-((S)-2-methylmorpholine-4-carbonyl)-2,6-diazaspiro[3.6]decan-6-yl)quinazolin-7-yl)-7-fluorobenzo[b]thiophene-3-carbonitrile] | < 5 | < 5
Nc1nc2c(-c3c(Cl)cc4c(N5CCC6(CC5)CN(S(=O)(=O)F)C6)nc(OC[C@@]56CCCN5C[C@H](F)C6)nc4c3F)ccc(F)c2s1 [compound 191, 7-(7-(2-amino-7-fluorobenzo[d]thiazol-4-yl)-6-chloro-8-fluoro-2-(((2R,7aS)-2-fluorotetrahydro-1H-pyrrolizin-7a(5H)-yl)methoxy)quinazolin-4-yl)-2,7-diazaspiro[3.5]nonane-2-sulfonyl fluoride] | < 5 | ≥ 5
N#Cc1c(N)sc2c(F)ccc(-c3c(Cl)cc4c(N5CCC6(CN(C#N)C6)C5)nc(OC[C@@]56CCCN5C[C@H](F)C6)nc4c3F)c12 [compound 182, 6-(7-(2-amino-3-cyano-7-fluorobenzo[b]thiophen-4-yl)-6-chloro-8-fluoro-2-(((2R,7aS)-2-fluorotetrahydro-1H-pyrrolizin-7a(5H)-yl)methoxy)quinazolin-4-yl)-2,6-diazaspiro[3.4] octane-2-carbonitrile] | < 5 | < 5
